Assay results from US20230407243A1, “GENETIC PLATFORM TO INVESTIGATE THE FUNCTIONS OF BACTERIAL DRUG EFFLUX PUMPS” (priority 2022, published 2023).

What was measured:
Type in all cases: cell-based, Escherichia coli
EKO-35 araC::mdtEF Pore = assay: MIC susceptibility profiling, porinated efflux platform; details: for Fold changes of MICs: EKO-35 araC::mdtEF Pore compared to EKO-35-Pore; for Minimum inhibitory concentration, EKO-35 araC::mdtEF Pore: Table 14A, porinated, technical duplicate
Outline: (§1)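 E. coli strains carrying a genomically integrated constitutive fhuA ΔC/Δ4L pore were grown 18 h in LB at 37 °C, then diluted 1/2000 in MHB II from OD600 ~1.0. Compounds were tested in duplicate, 2-fold serial titration, for 18 h at 37 °C with shaking. MIC came from OD600 with the pre-incubation background subtracted.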

EKO-35 araC::acrB Pore = assay: as above; details: for Fold changes of MICs: EKO-35 araC::acr-B Pore compared to EKO-35-Pore; for Minimum inhibitory concentration, EKO-35 araC::acrB Pore: Table 14A, porinated, technical duplicate
Outline: as §1

EKO-35 araC::mdtBC Pore = assay: as above; details: for Fold changes of MICs: EKO-35 araC::mdtBC Pore compared to EKO-35-Pore; for Minimum inhibitory concentration: EKO-35 araC::mdtBC Pore, technical duplicate
Outline: as §1

[1] = tested on: EKO-35 araC::mexCD (MexCD from P. aeruginosa); assay: MIC susceptibility profiling, efflux platform; details: for Fold change of MICs: EKO-35 araC::mexCD compared to EKO-35; for Minimum Inhibitory Concentration, EKO-35 araC::mexCD: Table 13B, non-porinated, technical duplicate
Outline: (§2)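 LB o/n 37 °C → PBS pH 7.4, OD600 ~1.0 → 1/2000 in MHB II; 2-fold cmpd series, duplicate, DMSO ctrl; 18 h 37 °C, 900 rpm; OD600 post minus pre.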

EKO-35 araC::mdtEF = assay: MIC susceptibility profiling, efflux platform; details: for Fold change of MICs: EKO-35 araC::mdtEF compared to EKO-35; for Minimum Inhibitory Concentration, EKO-35 araC::mdtEF: Table 13A, non-porinated, technical duplicate
Outline: as §2

EKO-35 araC::acrB = assay: MIC susceptibility profiling, efflux platform; details: for Fold change of MICs: EKO-35 araC::acrB compared to EKO-35; for Minimum Inhibitory Concentration, EKO-35 araC::acrB: Table 13A, non-porinated, technical duplicate
Outline: as §2

EKO-35 araC::emrKY = assay: MIC susceptibility profiling, efflux platform; details: for Fold change of MICs: EKO-35 araC::emrKY compared to EKO-35; for Minimum Inhibitory Concentration, EKO-35 araC::emrKY: Table 13B, non-porinated, technical duplicate
Outline: as §2

EKO-35 araC::acrD = assay: MIC susceptibility profiling, efflux platform; details: for Fold change of MICs: EKO-35 araC::acrD compared to EKO-35; for Minimum Inhibitory Concentration, EKO-35 araC::acrD: Table 13A, non-porinated, technical duplicate
Outline: as §2

EKO-35 araC::mdtBC = assay: MIC susceptibility profiling, efflux platform; details: for Fold change of MICs: EKO-35 araC::mdtBC compared to EKO-35; for Minimum Inhibitory Concentration, EKO-35 araC::mdtBC: Table 13B, non-porinated, technical duplicate
Outline: as §2

EKO-35 araC::acrBD408A = assay: MIC susceptibility profiling, efflux platform; details: for Fold change of MICs: EKO-35 araC::acrBD408A compared to EKO-35; for Minimum Inhibitory Concentration, EKO-35 araC::acrBD408A: Table 13B, non-porinated, technical duplicate
Outline: as §2

EKO-35 araC::acrEF = assay: MIC susceptibility profiling, efflux platform; details: for Fold change of MICs: EKO-35 araC::acrEF compared to EKO-35; for Minimum Inhibitory Concentration, EKO-35 araC::acrEF: Table 13A, non-porinated, technical duplicate
Outline: as §2

EKO-35 araC::emrAB = assay: MIC susceptibility profiling, efflux platform; details: for Fold change of MICs: EKO-35 araC::emrAB compared to EKO-35; for Minimum Inhibitory Concentration, EKO-35 araC::emrAB: Table 13B, non-porinated, technical duplicate
Outline: as §2

EKO-35 araC::macAB = assay: MIC susceptibility profiling, efflux platform; details: for Fold change of MICs: EKO-35 araC::macAB compared to EKO-35; for Minimum Inhibitory Concentration, EKO-35 araC::macAB: Table 13B, non-porinated, technical duplicate
Outline: as §2

wild-type (WT) K-12-Pore = assay: microbe, parasite or virus in culture; details: technical duplicate; for Minimum inhibitory concentration (MIC), Pore K-12: Table 10, with pore; for Minimum inhibitory concentration, K-12 (WT)-Pore: Table 14A, porinated
Outline: as §1

ΔtolC-Pore = assay: microbe, parasite or virus in culture; details: technical duplicate; for Minimum inhibitory concentration (MIC), Pore ΔtolC: Table 10, with pore; for Minimum inhibitory concentration, ΔtolC-Pore: Table 14A, porinated
Outline: as §1

EKO-35-Pore = assay: MIC susceptibility profiling, porinated strain; details: for Fold changes of MICs: EKO-35-Pore compared to EKO-35-Pore (reference); for Minimum inhibitory concentration (MIC), Pore EKO-35: Table 10, with pore; for Minimum inhibitory concentration (MIC), Pore EKO-35 / Minimum inhibitory concentration, EKO-35-Pore: technical duplicate; for Minimum inhibitory concentration, EKO-35-Pore: Table 14A, porinated
Outline: as §1

E. coli ΔtolC = assay: microbe, parasite or virus in culture; details: technical duplicate; for Minimum inhibitory concentration (MIC), ΔtolC: Table 10, without pore; for Minimum Inhibitory Concentration, ΔtolC: Table 13A, non-porinated
Outline: as §2

[2] = tested on: wild-type E. coli K-12 str. BW25113; assay: microbe, parasite or virus in culture; details: technical duplicate; for Minimum inhibitory concentration (MIC), K-12: Table 10, without pore; for Minimum Inhibitory Concentration, K-12: Table 13A, non-porinated
Outline: as §2

E. coli EKO-35 = assay: microbe, parasite or virus in culture; details: for Fold change of MICs: EKO-35 compared to EKO-35 (reference); for Minimum inhibitory concentration (MIC), EKO-35: Table 10, without pore; for Minimum inhibitory concentration (MIC), EKO-35 / Minimum Inhibitory Concentration, EKO-35: technical duplicate; for Minimum Inhibitory Concentration, EKO-35: Table 13A, non-porinated
Outline: as §2

SMILES	Fold changes of MICs (EKO-35 araC::mdtEF Pore) [fold]	Minimum inhibitory concentration, EKO-35 araC::mdtEF Pore (EKO-35 araC::mdtEF Pore) [µg/mL]	Fold changes of MICs (EKO-35 araC::acrB Pore) [fold]	Minimum inhibitory concentration, EKO-35 araC::acrB Pore (EKO-35 araC::acrB Pore) [µg/mL]	Fold changes of MICs (EKO-35 araC::mdtBC Pore) [fold]	Minimum inhibitory concentration (EKO-35 araC::mdtBC Pore) [µg/mL]	Fold change of MICs [1] [fold]	Minimum Inhibitory Concentration, EKO-35 araC::mexCD [1] [µg/mL]	Fold change of MICs (EKO-35 araC::mdtEF) [fold]	Minimum Inhibitory Concentration, EKO-35 araC::mdtEF (EKO-35 araC::mdtEF) [µg/mL]	Fold change of MICs (EKO-35 araC::acrB) [fold]	Minimum Inhibitory Concentration, EKO-35 araC::acrB (EKO-35 araC::acrB) [µg/mL]	Fold change of MICs (EKO-35 araC::emrKY) [fold]	Minimum Inhibitory Concentration, EKO-35 araC::emrKY (EKO-35 araC::emrKY) [µg/mL]	Fold change of MICs (EKO-35 araC::acrD) [fold]	Minimum Inhibitory Concentration, EKO-35 araC::acrD (EKO-35 araC::acrD) [µg/mL]	Fold change of MICs (EKO-35 araC::mdtBC) [fold]	Minimum Inhibitory Concentration, EKO-35 araC::mdtBC (EKO-35 araC::mdtBC) [µg/mL]	Fold change of MICs (EKO-35 araC::acrBD408A) [fold]	Minimum Inhibitory Concentration, EKO-35 araC::acrBD408A (EKO-35 araC::acrBD408A) [µg/mL]	also measured
O=C(Nc1cccc(Oc2c(F)c(F)c(F)c(F)c2F)c1)c1ccccc1 [compound 1]	1	320	1	320	1	320	1	320	1	320	1	320	1	320	1	320	1	320	1	320	Fold change of MICs (EKO-35 araC::acrEF): 1 fold; Minimum Inhibitory Concentration, EKO-35 araC::acrEF (EKO-35 araC::acrEF): 320 µg/mL; Fold change of MICs (EKO-35 araC::emrAB): 1 fold; Minimum Inhibitory Concentration, EKO-35 araC::emrAB (EKO-35 araC::emrAB): 320 µg/mL; Fold change of MICs (EKO-35 araC::macAB): 1 fold; Minimum Inhibitory Concentration, EKO-35 araC::macAB (EKO-35 araC::macAB): 320 µg/mL; Minimum inhibitory concentration (MIC), Pore K-12 (wild-type (WT) K-12-Pore): 320 µg/mL; Minimum inhibitory concentration, K-12 (WT)-Pore (wild-type (WT) K-12-Pore): 320 µg/mL; Minimum inhibitory concentration (MIC), Pore ΔtolC (ΔtolC-Pore): 10 µg/mL; Minimum inhibitory concentration, ΔtolC-Pore (ΔtolC-Pore): 10 µg/mL; Fold changes of MICs (EKO-35-Pore): 1 fold; Minimum inhibitory concentration (MIC), Pore EKO-35 (EKO-35-Pore): 320 µg/mL; Minimum inhibitory concentration, EKO-35-Pore (EKO-35-Pore): 320 µg/mL; Minimum inhibitory concentration (MIC), ΔtolC (E. coli ΔtolC): 5 µg/mL; Minimum Inhibitory Concentration, ΔtolC (E. coli ΔtolC): 5 µg/mL; Minimum inhibitory concentration (MIC), K-12 [2]: 320 µg/mL; Minimum Inhibitory Concentration, K-12 [2]: 320 µg/mL; Fold change of MICs (E. coli EKO-35): 1 fold; Minimum inhibitory concentration (MIC), EKO-35 (E. coli EKO-35): 320 µg/mL; Minimum Inhibitory Concentration, EKO-35 (E. coli EKO-35): 320 µg/mL
N#Cc1ccc(-c2c(NC(=O)C(Cl)Cl)oc(-c3cccs3)c2C#N)cc1 [compound 2]	1	320	1	320	1	320	1	320	1	320	1	320	1	320	1	320	1	320	1	320	Fold change of MICs (EKO-35 araC::acrEF): 1 fold; Minimum Inhibitory Concentration, EKO-35 araC::acrEF (EKO-35 araC::acrEF): 320 µg/mL; Fold change of MICs (EKO-35 araC::emrAB): 1 fold; Minimum Inhibitory Concentration, EKO-35 araC::emrAB (EKO-35 araC::emrAB): 320 µg/mL; Fold change of MICs (EKO-35 araC::macAB): 1 fold; Minimum Inhibitory Concentration, EKO-35 araC::macAB (EKO-35 araC::macAB): 320 µg/mL; Minimum inhibitory concentration (MIC), Pore K-12 (wild-type (WT) K-12-Pore): 320 µg/mL; Minimum inhibitory concentration, K-12 (WT)-Pore (wild-type (WT) K-12-Pore): 320 µg/mL; Minimum inhibitory concentration (MIC), Pore ΔtolC (ΔtolC-Pore): 1.25 µg/mL; Minimum inhibitory concentration, ΔtolC-Pore (ΔtolC-Pore): 1.25 µg/mL; Fold changes of MICs (EKO-35-Pore): 1 fold; Minimum inhibitory concentration (MIC), Pore EKO-35 (EKO-35-Pore): 320 µg/mL; Minimum inhibitory concentration, EKO-35-Pore (EKO-35-Pore): 320 µg/mL; Minimum inhibitory concentration (MIC), ΔtolC (E. coli ΔtolC): 1.25 µg/mL; Minimum Inhibitory Concentration, ΔtolC (E. coli ΔtolC): 1.25 µg/mL; Minimum inhibitory concentration (MIC), K-12 [2]: 320 µg/mL; Minimum Inhibitory Concentration, K-12 [2]: 320 µg/mL; Fold change of MICs (E. coli EKO-35): 1 fold; Minimum inhibitory concentration (MIC), EKO-35 (E. coli EKO-35): 320 µg/mL; Minimum Inhibitory Concentration, EKO-35 (E. coli EKO-35): 320 µg/mL
